The values that follow come from ChEMBL document CHEMBL5727484, “Compounds and methods for inhibiting NHE-mediated antiport in the treatment of disorders associated with fluid retention or salt overload and gastrointestinal tract disorders” (2020).

What is called IC50 is the midpoint of a concentration-inhibition curve.

Bounds are passed on as bounds.

This assay can be described thus: Cell-Based Assay of NHE-3 Activity: Rat NHE-3-mediated Na+-dependent H+ antiport was measured using a modification of the pH sensitive dye method originally reported by Tsien (Proc. Natl. Acad. Sci. USA. (1984) 81(23): 7436-7440). Opossum kidney (OK) cells were obtained from the ATCC and propagated per their instructions. The rat NHE-3 gene was introduced into OK cells via electroporation, seeded into 96 well plates and grown overnight. Medium was aspirated from the wells, cells were washed twice with NaCl-HEPES buffer (100 mM NaCl, 50 mM HEPES, 10 mM glucose, 5 mM KCl, 2 mM CaCl2, 1 mM MgCl2, pH 7.4), then incubated for 30 min at room temperature with NH4Cl-HEPES buffer (20 mM NH4Cl, 80 mM NaCl, 50 mM HEPES, 5 mM KCl, 2 mM CaCl2, 1 mM MgCl2, pH 7.4) containing 5 uM BCECF-AM (Invitrogen). Cells were washed twice with Ammonium free, Na+-free HEPES (100 mM choline, 50 mM HEPES, 10 mM glucose, 5 mM KCl, 2 mM CaCl2, 1 mM MgCl2, pH 7.4) and incubated in the same buffer for 10 minutes at room temperature to lower intracellular pH. […] Initial rates were plotted as the average 3-6 replicates, and pIC50 values were estimated using GraphPad Prism.
`CN1Cc2c(Cl)cc(Cl)cc2[C@H](c2cccc(S(=O)(=O)NCCOCCOCCNC(=O)Nc3ccc(NC(=O)NCCOCCOCCNS(=O)(=O)c4cccc([C@@H]5CN(C)Cc6c(Cl)cc(Cl)cc65)c4)cc3)c2)C1` (single isomer, unassigned): the IC50 was less than 100 nM.

`CN1Cc2c(Cl)cc(Cl)cc2C(c2cccc(S(=O)(=O)NCCOCCOCCNC(=O)NCCCCNC(=O)NCCOCCOCCNS(=O)(=O)c3cccc(C4CN(C)Cc5c(Cl)cc(Cl)cc54)c3)c2)C1` (configuration not stated): the IC50 was less than 100 nM.

Take `CN1Cc2c(Cl)cc(Cl)cc2C(c2ccc(NS(=O)(=O)NCCP(=O)(O)O)cc2)C1` (configuration not stated): the IC50 entry is “in the range around 3160 nM”.

On to `CN1Cc2c(Cl)cc(Cl)cc2C(c2cccc(S(=O)(=O)NCCOCCOCCOCCNC(=O)c3ccc(C(=O)NCCOCCOCCOCCNS(=O)(=O)c4cccc(C5CN(C)Cc6c(Cl)cc(Cl)cc65)c4)cc3)c2)C1` (configuration not stated), for which the IC50 is less than 100 nM.

Turning to `CN1Cc2c(Cl)cc(Cl)cc2C(c2cccc(S(=O)(=O)NCCOCCOCCOCCNC(=O)[C@@H](O)[C@@H](O)C(=O)NCCOCCOCCOCCNS(=O)(=O)c3cccc(C4CN(C)Cc5c(Cl)cc(Cl)cc54)c3)c2)C1` (some centres not stated), the IC50 was less than 100 nM.

On to `C/C(=C\c1cc(F)c(Oc2ccc(S(=O)(=O)NCCOCCOCCOCCN)cc2)c(F)c1)C(=O)N=C(N)N`, for which the IC50 entry was “in the range around 316 nM”.

For `C/C(=C\c1cc(F)c(Oc2ccc(S(=O)(=O)NCCOCCOCCOCCNC(=O)CCCCCCC(=O)NCCOCCOCCOCCNS(=O)(=O)c3ccc(Oc4c(F)cc(/C=C(\C)C(=O)N=C(N)N)cc4F)cc3)cc2)c(F)c1)C(=O)N=C(N)N`, the IC50 is less than 100 nM.

`CN1Cc2c(Cl)cc(Cl)cc2C(c2ccc(S(=O)(=O)NCCOCCOCCNC(=O)c3ccc(C(=O)NCCOCCOCCNS(=O)(=O)c4ccc(C5CN(C)Cc6c(Cl)cc(Cl)cc65)cc4)cc3)cc2)C1` (configuration not stated): the half-inhibitory concentration (IC50) was less than 10000 nM.

Turning to `CN1Cc2c(Cl)cc(Cl)cc2C(c2cccc(S(=O)(=O)NCCOCCOCCOCCNC(=O)CCCCCCC(=O)NCCOCCOCCOCCNS(=O)(=O)c3cccc(C4CN(C)Cc5c(Cl)cc(Cl)cc54)c3)c2)C1` (configuration not stated), the half-maximal inhibitory concentration (IC50) result was “in the range around 316 nM”.

For the compound `CN1Cc2c(Cl)cc(Cl)cc2C(c2cccc(S(=O)(=O)NCCOCCOCCOCCNC(=O)Nc3ccc(NC(=O)NCCOCCOCCOCCNS(=O)(=O)c4cccc(C5CN(C)Cc6c(Cl)cc(Cl)cc65)c4)cc3)c2)C1` (configuration not stated), the IC50 entry is “in the range around 3160 nM”.

As for `CN1Cc2c(Cl)cc(Cl)cc2C(c2ccc(S(=O)(=O)NCCOCCOCCOCCNC(=O)C(O)C(O)C(=O)NCCOCCOCCOCCNS(=O)(=O)c3ccc(C4CN(C)Cc5c(Cl)cc(Cl)cc54)cc3)cc2)C1` (configuration not stated), the IC50 was less than 100 nM.

Regarding `CN1Cc2c(Cl)cc(Cl)cc2C(c2cccc(S(=O)(=O)NCCOCCOCCNC(=O)Nc3ccc(NC(=O)NCCOCCOCCNS(=O)(=O)c4cccc(C5CN(C)Cc6c(Cl)cc(Cl)cc65)c4)cc3)c2)C1` (configuration not stated), the IC50 is less than 100 nM.

Turning to `CN1Cc2c(Cl)cc(Cl)cc2C(c2cccc(S(=O)(=O)NCCOCCOCCNC(=O)COCC(=O)NCCOCCOCCNS(=O)(=O)c3cccc(C4CN(C)Cc5c(Cl)cc(Cl)cc54)c3)c2)C1` (configuration not stated), the IC50 is less than 100 nM.

On to `CN1Cc2c(Cl)cc(Cl)cc2C(c2cccc(S(=O)(=O)NCCOCCOCCOCCNC(=O)c3cccc(C(=O)NCCOCCOCCOCCNS(=O)(=O)c4cccc(C5CN(C)Cc6c(Cl)cc(Cl)cc65)c4)c3)c2)C1` (configuration not stated), for which the IC50 result is “in the range around 316 nM”.

For the compound `CN1Cc2c(Cl)cc(Cl)cc2C(c2cccc(S(=O)(=O)NCCOCCOCCNC(=O)C(C)(C)C(=O)NCCOCCOCCNS(=O)(=O)c3cccc(C4CN(C)Cc5c(Cl)cc(Cl)cc54)c3)c2)C1` (configuration not stated), the IC50 result was “in the range around 3160 nM”.

For `CN1Cc2c(Cl)cc(Cl)cc2C(c2cccc(S(=O)(=O)NCCOCCOCCOCCNC(=O)[C@@H](O)[C@H](O)C(=O)NCCOCCOCCOCCNS(=O)(=O)c3cccc(C4CN(C)Cc5c(Cl)cc(Cl)cc54)c3)c2)C1` (some centres not stated), the IC50 was less than 100 nM.

Take `CN1Cc2c(Cl)cc(Cl)cc2C(c2cccc(S(=O)(=O)NCCOCCOCCOCCNC(=O)c3cc(C(=O)NCCOCCOCCOCCNS(=O)(=O)c4cccc(C5CN(C)Cc6c(Cl)cc(Cl)cc65)c4)cc(C(=O)NCCOCCOCCOCCNS(=O)(=O)c4cccc(C5CN(C)Cc6c(Cl)cc(Cl)cc65)c4)c3)c2)C1` (configuration not stated): the IC50 was less than 100 nM.

Take `CN1Cc2c(Cl)cc(Cl)cc2C(c2cccc(S(=O)(=O)NCCOCCOCCNC(=O)CCC(=O)NCCOCCOCCNS(=O)(=O)c3cccc(C4CN(C)Cc5c(Cl)cc(Cl)cc54)c3)c2)C1` (configuration not stated): the IC50 is less than 100 nM.

For the compound `CN1Cc2c(Cl)cc(Cl)cc2[C@H](c2ccc(S(=O)(=O)NCCOCCOCCNC(=O)COCC(=O)NCCOCCOCCNS(=O)(=O)c3ccc([C@@H]4CN(C)Cc5c(Cl)cc(Cl)cc54)cc3)cc2)C1` (single isomer, unassigned), the IC50 was less than 100 nM.

On to `NCCCN1CCN(c2cccc(-c3nc(N=C(N)N)nc4ccc(Cl)cc34)c2)CC1`, for which the concentration for half-maximal inhibition (IC50) result is “in the range around 316 nM”.

With `CN1Cc2c(Cl)cc(Cl)cc2[C@H](c2ccc(S(=O)(=O)NCCOCCOCCOCCNC(=O)NCCCCNC(=O)NCCOCCOCCOCCNS(=O)(=O)c3ccc([C@@H]4CN(C)Cc5c(Cl)cc(Cl)cc54)cc3)cc2)C1` (single isomer, unassigned), the IC50 is less than 100 nM.

Turning to `NC(N)=NCCCN1CCN(c2cccc(-c3nc(N=C(N)N)nc4ccc(Cl)cc34)c2)CC1`, the IC50 entry is “in the range around 316 nM”.

Consider `CN1Cc2c(Cl)cc(Cl)cc2C(c2ccc(S(=O)(=O)NCCOCCOCCOCCNC(=O)c3ccc(C(=O)NCCOCCOCCOCCNS(=O)(=O)c4ccc(C5CN(C)Cc6c(Cl)cc(Cl)cc65)cc4)cc3)cc2)C1` (configuration not stated), for which the IC50 was less than 10000 nM.

As for `CN1Cc2c(Cl)cc(Cl)cc2C(c2cccc(S(=O)(=O)NCCOCCOCCOCCn3cc(COCc4cn(CCOCCOCCOCCNS(=O)(=O)c5cccc(C6CN(C)Cc7c(Cl)cc(Cl)cc76)c5)nn4)nn3)c2)C1` (configuration not stated), the IC50 was less than 100 nM.

Regarding `NC(N)=Nc1nc(-c2ccc(N3CCN(CCO)CC3)cc2)c2cc(Cl)ccc2n1`, the IC50 entry was “in the range around 316 nM”.

Consider `C/C(=C\c1cc(F)c(Oc2ccc(S(=O)(=O)NCCCP(=O)(O)O)cc2)c(F)c1)C(=O)N=C(N)N`, for which the IC50 result was “in the range around 3160 nM”.

Consider `CN1Cc2c(Cl)cc(Cl)cc2C(c2ccc(S(=O)(=O)NCCOCCOCCNC(=O)[C@H](O)[C@@H](O)C(=O)NCCOCCOCCNS(=O)(=O)c3ccc(C4CN(C)Cc5c(Cl)cc(Cl)cc54)cc3)cc2)C1` (some centres not stated), for which the IC50 result is “in the range around 316 nM”.

Turning to `CN1Cc2c(Cl)cc(Cl)cc2C(c2cccc(S(=O)(=O)NCCOCCOCCOCCOCCOCCOCCOCCOCCOCCOCCNC(=O)CCOCCOCCOCCOCCOCCOCCOCCOCCOCCC(=O)NCCOCCOCCOCCOCCOCCOCCOCCOCCOCCOCCNS(=O)(=O)c3cccc(C4CN(C)Cc5c(Cl)cc(Cl)cc54)c3)c2)C1` (configuration not stated), the IC50 result was “in the range around 316 nM”.

Consider `C/C(=C\c1cc(F)c(Oc2ccc(S(=O)(=O)NCCOCCOCCOCCOCCOCCOCCN)cc2)c(F)c1)C(=O)N=C(N)N`, for which the IC50 result was “in the range around 316 nM”.

`CN1Cc2c(Cl)cc(Cl)cc2C(c2cccc(S(=O)(=O)NCCOCCOCCOCCNS(=O)(=O)c3cccc(S(=O)(=O)NCCOCCOCCOCCNS(=O)(=O)c4cccc(C5CN(C)Cc6c(Cl)cc(Cl)cc65)c4)c3)c2)C1` (configuration not stated): the IC50 result is “in the range around 3160 nM”.

On to `CN1Cc2c(Cl)cc(Cl)cc2C(c2ccc(S(=O)(=O)NCCOCCOCCOCCNC(=O)NCCOCCOCCOCCNS(=O)(=O)c3ccc(C4CN(C)Cc5c(Cl)cc(Cl)cc54)cc3)cc2)C1` (configuration not stated), for which the IC50 was less than 100 nM.

`CN1Cc2c(Cl)cc(Cl)cc2C(c2cccc(S(=O)(=O)NCCOCCOCCOCCNC(=O)CN(CC(=O)NCCOCCOCCOCCNS(=O)(=O)c3cccc(C4CN(C)Cc5c(Cl)cc(Cl)cc54)c3)CC(=O)NCCOCCOCCOCCNS(=O)(=O)c3cccc(C4CN(C)Cc5c(Cl)cc(Cl)cc54)c3)c2)C1` (configuration not stated): the IC50 result was “in the range around 316 nM”.

As to `CN1Cc2c(Cl)cc(Cl)cc2C(c2cccc(S(=O)(=O)NCCOCCOCCNC(=O)c3ccc(C(=O)NCCOCCOCCNS(=O)(=O)c4cccc(C5CN(C)Cc6c(Cl)cc(Cl)cc65)c4)cc3)c2)C1` (configuration not stated), the IC50 result is “in the range around 3160 nM”.

With `CN1Cc2c(Cl)cc(Cl)cc2C(c2cccc(S(=O)(=O)NCCOCCOCCOCCNC(=O)C(O)C(O)C(=O)NCCOCCOCCOCCNS(=O)(=O)c3cccc(C4CN(C)Cc5c(Cl)cc(Cl)cc54)c3)c2)C1` (configuration not stated), the IC50 was less than 100 nM.

On to `NC(N)=Nc1nc(-c2cccc(N3CCN(CCO)CC3)c2)c2cc(Cl)ccc2n1`, for which the IC50 entry is “in the range around 316 nM”.

With `CN1Cc2c(Cl)cc(Cl)cc2C(c2ccc(S(=O)(=O)NCCOCCOCCNC(=O)C(O)C(O)C(=O)NCCOCCOCCNS(=O)(=O)c3ccc(C4CN(C)Cc5c(Cl)cc(Cl)cc54)cc3)cc2)C1` (configuration not stated), the IC50 is less than 100 nM.

For `CN1Cc2c(Cl)cc(Cl)cc2C(c2cccc(S(=O)(=O)NCCOCCOCCNC(=O)[C@H](O)[C@@H](O)C(=O)NCCOCCOCCNS(=O)(=O)c3cccc(C4CN(C)Cc5c(Cl)cc(Cl)cc54)c3)c2)C1` (some centres not stated), the IC50 entry is “in the range around 316 nM”.

`CN1Cc2c(Cl)cc(Cl)cc2C(c2cccc(S(=O)(=O)NCCOCCOCCOCCNC(=O)c3ccccc3C(=O)NCCOCCOCCOCCNS(=O)(=O)c3cccc(C4CN(C)Cc5c(Cl)cc(Cl)cc54)c3)c2)C1` (configuration not stated): the IC50 is less than 100 nM.

As for `O=C(CNCc1ccc(Cl)cc1Cl)c1cccc([N+](=O)[O-])c1`, the IC50 is less than 10000 nM.

In the case of `CN1Cc2c(Cl)cc(Cl)cc2C(c2cccc(S(=O)(=O)NCCOCCOCCNC(=O)NCCOCCOCCNS(=O)(=O)c3cccc(C4CN(C)Cc5c(Cl)cc(Cl)cc54)c3)c2)C1` (configuration not stated), the IC50 is less than 10000 nM.

With `CN1Cc2c(Cl)cc(Cl)cc2C(c2cccc(S(=O)(=O)NCCOCCOCCOCCNC(=O)NCCCCNC(=O)NCCOCCOCCOCCNS(=O)(=O)c3cccc(C4CN(C)Cc5c(Cl)cc(Cl)cc54)c3)c2)C1` (configuration not stated), the IC50 was less than 100 nM.

Regarding `CN1Cc2c(Cl)cc(Cl)cc2[C@H](c2ccc(S(=O)(=O)NCCOCCOCCOCCNC(=O)NCCOCCOCCOCCNS(=O)(=O)c3ccc([C@@H]4CN(C)Cc5c(Cl)cc(Cl)cc54)cc3)cc2)C1` (single isomer, unassigned), the concentration for half-maximal inhibition (IC50) is less than 100 nM.
